According to patent publication US10786475B2, “Method for preventing, treating, or improving fatty liver by administering effective amounts of azelaic acid to a subject” (Korea University Research and Business Foundation, priority 2018, dated 2020):

Experiments:
Hepa1c1c-7 cells = assay: Fatty acid oxidation rate ([1-14C]palmitate) in Hepa1c1c-7 cells; type: cell-based, mouse; conditions: 100 μM AzA, 24 hours, compared with control group
Description: Hepa1c1c-7 cells were seeded on a 24-well plate at 5×10^5 cells/mL, cultured for 24 hours, treated with 100 μM of AzA, and then incubated for 24 hours. Afterward, [1-^14C]palmitate was accumulated, the cells were cultured for one hour, and the medium was collected to extract CO2 using NaOH and HCl, followed by measuring ^14CO2 using a liquid scintillation counter. As a positive control, GW7647 (1 μM) was used.

[1] = tested on: 3T3-L1 cells stimulated by LPS; assay: IL-6 and TNF-α gene expression (qPCR) in LPS-treated 3T3-L1 adipose cells; type: cell-based, mouse; conditions: LPS-treated 3T3-L1 cells differentiated into adipose cells, compared with control group
Description: (§1) 3T3-L1 cells, mouse pre-adipose cells were purchased from the Korean Cell Line Bank (Seoul, Korea). The 3T3-L1 cells were cultured in Dulbecco's modified Eagle's medium (DMEM) supplemented with 10% heat-inactivated bovine calf serum (Gibco, Grand Island, N.Y., USA) and 1% PEST under 5% CO2 at 37° C. The 3T3-L1 pre-adipose cells were seeded on a 6-well plate at 1×10^6 cells/well to differentiate into adipose cells, and cultured to a density of 100%. After 2 days, the cultured 3T3-L1 pre-adipose cells were incubated in DMEM containing 10% fetal bovine serum (FBS) and an MDI solution (0.5 mM IBMX, 0.5 μM dexamethasone and 10 μg/mL insulin) for 3 days. Subsequently, the treated cells were cultured in DMEM containing 10% FBS and 10 μg/mL insulin, and the formation of lipid droplets in cells and the degree thereof were confirmed, and based on this, the differentiation into adipose cells was confirmed. To confirm the expression of IL-6 and TNF-α genes, qRT-PCR was performed by the same methods described in Examples 7-4 and 7-5.

PPARα = PPARα gene expression by qPCR in Hepa1c1c-7 cells; type: cell-based, mouse; conditions: 50 μM AzA, 2 hours, compared with control group
Description: To confirm the change in PPARα gene expression level by an AzA, Hepa1c1c-7 cells were seeded onto a 24-well plate at 5×10^5 cells/mL, cultured for 24 hours, and treated with 50 μM of AzA for 2 hours. Subsequently, RNA was extracted, and cDNA synthesis was performed from the extracted RNA using a ReverTra Ace® qPCR RT kit (TOYOBO, Osaka, Japan). More specifically, to increase PCR efficiency, the extracted RNA was treated at 65° C. for 5 minutes, and the resulting product was immediately stored on ice. Subsequently, a total of 8 μL of a reaction mixture was prepared with 2 μL of a 4×DNA Master Mix containing a gDNA remover, 0.5 μg of RNA and distilled water (nuclease-free water), and reacted at 37° C. for 5 minutes. Subsequently, a 5×RT Master mix was added to the reaction mixture, reacted at 37° C. for 5 minutes, at 50° C. for 5 minutes and at 98° C. for 5 minutes to synthesize cDNA. The cDNA synthesized by the above method was subjected to qPCR using a THUNDERBIRD SYBR qPCR Mix (TOYOBO) and an iQ5 iCycler system (Bio-Rad, California, USA) according to a method known to those of ordinary skill in the art. More particularly, amplification was performed with initial denaturation at 95° C. for 4.5 minutes, and 40 cycles of additional denaturation at the same temperature for 10 seconds, annealing and cooling at 55 to 60° C. for 30 seconds, and elongation at 68° C. for 20 seconds. […]

mice fed a high-fat diet = assay: Comparison of AzA-added and barley-added high-fat diets in mice; type: in vivo, mouse; conditions: 6 weeks
Description: A diet, in which an AzA (0.5 g/kg diet) or 10% (w/w) barley was added to a high-fat diet, was administered to mice for 6 weeks.

[2] = tested on: 3T3-L1 cells stimulated by LPS; assay: GPCR 10-pathway reporter assay in LPS-induced 3T3-L1 cells; type: cell-based, mouse; conditions: 100 ng/mL LPS 1 hour, 50 μM AzA 6 hours
Description: as §1, with “confirmed.” for “confirmed. To confirm the expression of IL-6 and TNF-α genes, qRT-PCR was performed by the same methods described in Examples 7-4 and 7-5.”
3T3-L1 adipose cells were seeded on a 96 well-plate at 1×10^4 cells/well and cultured for 24 hours, and transfected with a construct including a transcription factor promoter and a luciferase for 8 hours. […]
To confirm a mechanism of an anti-inflammatory effect of an AzA, 10 transcription factors for signal transduction of GPCR were analyzed by the same method as described in Example 7-3.

[3] = AzA (0.5 g/kg diet) added to high-fat diet
[4] = AzA (0.5 g/kg diet) or 10% (w/w) barley added to high-fat diet, between groups

O=C(O)CCCCCCCC(=O)O [AzA, nonanedioic acid]
fatty acid oxidation rate (Hepa1c1c-7 cells): significantly increased
IL-6 gene expression [1]: significantly decreased
PPARα expression (PPARα): significant increase
ALT concentration (hepatotoxicity marker) (mice fed a high-fat diet; [3]): decreased
LDL cholesterol concentration (mice fed a high-fat diet; [3]): significantly decreased
triglyceride concentration in liver tissue (fatty liver lesion marker) (mice fed a high-fat diet; [3]): significantly decreased
HDL cholesterol concentration (mice fed a high-fat diet; [4]): no differences
fasting blood glucose concentration (mice fed a high-fat diet; [4]): no differences
total cholesterol concentration (mice fed a high-fat diet; [4]): no differences
triglyceride concentration (blood) (mice fed a high-fat diet; [4]): no differences
body weight (mice fed a high-fat diet; AzA (0.5 g/kg diet) or 10% (w/w) barley added to high-fat diet, versus high-fat diet group): significantly decreased
FOXO transcription factor activity (PI-3 Kinase/AKT pathway) [2]: significant activity
